Assay results as given in patent US9096632B2, “Modulator of activity of adenylate cyclase” (Public University Corporation Yokohama City University, priority 2010, dated 2015).

Key:
[1] = tested on: cardiac function (LVEF) of isoproterenol-loaded mice; assay: Chronic catecholamine loading experiment (isoproterenol heart failure model); type: in vivo, mouse; conditions: 15 mg/kg/day for 7 days, osmotic mini-pump, with isoproterenol 60 mg/kg/day; C57BL/6N
Method: FIG. 9 Prophylactic effects on heart failure. Isoproterenol alone (60 mg/kg/day for 7 days) was administered to wild-type mice (C57BL/6N) for one week with an osmotic mini-pump (Alzet2001) (ISO). Other WT received isoproterenol with vidarabine, V2E, V3E or V5E (15 mg/kg/day for 7 days).
<Chronic Catecholamine Loading Experiment>
An osmotic mini-pump filled with isoproterenol was hypodermically implanted in mice, and isoproterenol was administered for 1 week continuously in a sustained-release manner (60 mg/kg). The cardiac function of mice (EF, ejection fraction) was measured by cardiac ultrasonography, and values before and after isoproterenol administration were compared. It is generally known that when isoproterenol is administered to mice with a mini-pump, their cardiac function (EF) decreases (i.e., they manifest heart failure).
Isoproterenol alone (60 mg/kg/day for 7 days) was administered to WT (C57BL/6N) for 1 week with an osmotic mini-pump (Alzet 2001). Other WT received isoproterenol and, at the same time, vidarabine, V2E, V3E or V5E (15 mg/kg/day for 7 days).

[2] = molecular target: T1, adenylyl cyclase activity in the striatum (type 5 adenylyl cyclase) (Mus musculus, UniProt P84309); assay: Membrane adenylyl cyclase assay, WT striatal membrane, forskolin-stimulated; type: biochemical; conditions: 100 μM compound; 50 μM forskolin; WT striatal membrane; read-out: forskolin-stimulated adenylyl cyclase activity (relative to activity without inhibitor = 100)
T1 construct: IC50 on adenylyl cyclase activity in the striatum; other: WT; estimated from 10, 50 and 100 μM; other: 100 μM compound
T1 sequence (P84309 whole entry): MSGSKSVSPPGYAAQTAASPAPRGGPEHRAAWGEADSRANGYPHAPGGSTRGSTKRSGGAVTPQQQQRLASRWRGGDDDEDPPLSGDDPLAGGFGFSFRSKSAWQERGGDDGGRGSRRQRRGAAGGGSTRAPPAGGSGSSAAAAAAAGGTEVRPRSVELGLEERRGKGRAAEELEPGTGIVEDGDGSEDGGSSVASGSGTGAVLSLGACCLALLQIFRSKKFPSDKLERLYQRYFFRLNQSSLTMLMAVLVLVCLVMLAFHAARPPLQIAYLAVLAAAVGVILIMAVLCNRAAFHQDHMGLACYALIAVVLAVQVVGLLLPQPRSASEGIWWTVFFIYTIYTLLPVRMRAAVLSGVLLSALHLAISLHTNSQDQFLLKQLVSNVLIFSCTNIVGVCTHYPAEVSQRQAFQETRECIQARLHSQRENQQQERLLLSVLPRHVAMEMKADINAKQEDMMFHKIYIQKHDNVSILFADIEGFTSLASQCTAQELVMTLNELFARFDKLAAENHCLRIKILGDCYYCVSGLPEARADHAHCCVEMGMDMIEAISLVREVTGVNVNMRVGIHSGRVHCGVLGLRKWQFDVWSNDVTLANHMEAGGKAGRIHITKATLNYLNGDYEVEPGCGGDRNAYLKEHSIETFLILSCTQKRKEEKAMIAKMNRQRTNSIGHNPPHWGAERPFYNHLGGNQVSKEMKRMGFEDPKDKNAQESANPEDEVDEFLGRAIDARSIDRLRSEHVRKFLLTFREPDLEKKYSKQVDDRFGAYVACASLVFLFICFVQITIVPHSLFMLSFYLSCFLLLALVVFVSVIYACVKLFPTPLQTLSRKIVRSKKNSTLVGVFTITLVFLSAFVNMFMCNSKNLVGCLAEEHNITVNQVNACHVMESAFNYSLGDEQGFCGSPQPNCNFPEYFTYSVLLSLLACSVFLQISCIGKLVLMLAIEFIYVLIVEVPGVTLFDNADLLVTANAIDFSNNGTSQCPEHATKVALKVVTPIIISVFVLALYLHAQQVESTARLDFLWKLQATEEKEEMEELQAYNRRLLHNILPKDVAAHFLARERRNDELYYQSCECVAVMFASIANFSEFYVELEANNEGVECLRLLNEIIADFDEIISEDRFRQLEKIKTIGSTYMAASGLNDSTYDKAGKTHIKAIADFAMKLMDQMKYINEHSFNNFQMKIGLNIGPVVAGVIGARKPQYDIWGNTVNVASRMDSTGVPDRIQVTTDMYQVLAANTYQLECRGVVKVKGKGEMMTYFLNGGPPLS
Method: (§1) FIG. 2 Inhibitory effects of various compounds on adenylyl cyclase activity in mouse striatum. The striatum is part of the brain. Here, it is known that type 5 adenylyl cyclase occupies almost all of the enzyme activity. […] Relative values are shown with adenylyl cyclase activity in the presence of 50 μM forskolin but in the absence of inhibitors being taken as 100 (n=4, means±S.E.).
(§2) <Membrane Adenylyl Cyclase Assay>
(§3) Striatal, cardiac and pulmonary tissues were removed from WT (C57BL) (Charles River Laboratories Japan, Inc.) and AC5KO (Circ. Res. 93: 364-371, 2003), both of which were 12-15 weeks of age after birth, and individual membrane protein fractions were prepared therefrom. The resultant membrane preparations were incubated with a reaction mixture (20 mM HEPES, pH 8, 5 mM MgCl2, 0.5 mM EDTA, pH 8, 0.1 mM ATP, 1 mM phospho creatine, 8 U/mL creatine phosphor kinase, 200 μM IBMX) at 30° C. in the presence of forskolin (an activator of adenylyl cyclase) (50 μM, Sigma Cat. No. F6886) and various compounds, to thereby allow production of cAMP. In this assay, striatum- or lung-derived membrane preparations were used in an amount of 1 μg, and heart-derived membrane preparation was used in an amount of 2 μg. 15 minutes (striatum and lung) or 30 minutes (heart) after its start, the reaction was terminated by adding trichloroacetate (TCA) solution to give a final concentration of 5%. Then, the protein was precipitated by centrifugation (13,500×g, 10 min).
(§4) In both membrane adenylyl cyclase assay and cAMP accumulation assay, the amount of cAMP contained in TCA solution was determined by radioimmunoassay using […].

H9c2 cells = assay: cAMP accumulation assay in H9c2 cells, forskolin stimulation; type: cell-based, rat; conditions: 50 μM compound, 100 μM forskolin, n=1, preliminary
Method: […] <H9c2 Cultured Cells> […] No. D6429) in the presence of 95% air+5% CO2 at 37° C. 80-90% confluent H9c2 cells were suspended in 10% FBS-containing DMEM. The cell suspension (500 μl) was added to each well of 24-well plates to give a density of 40,000 cells/well, and incubated overnight at 37° C. Subsequently, cells were incubated in serum-free DMEM (500 μl/well) for 48 hours and subjected to cAMP accumulation assay. <cAMP Accumulation Assay> H9c2 cells were incubated in the presence of 500 μM IBMX for 20 minutes at 37° C. Then, various vidarabine derivatives were added to the culture broth to give a concentration of 50 μM. Cells were further incubated for 10 minutes at 37° C. […] Cells were further incubated at 4° C. overnight. Similar experiments were also carried out on rat adult cultured cardiac myocytes under stimulation with various vidarabine derivatives (10 μM) and forskolin (5 μM). In both membrane adenylyl cyclase assay and cAMP accumulation assay, the amount of cAMP contained in TCA solution was determined by radioimmunoassay using […].

[3] = Water solubility / hydrophilicity (stock solutions in pure water); type: physicochemical; conditions: in words
Method: The thus synthesized position 2-substituted derivative (V2E), position 3-substituted derivative (V3E) and position 5-substituted derivative (V5E) were dissolved in pure water to give a concentration of 10 mM, to thereby prepare stock solutions. Vidarabine was dissolved in 100% dimethylsulfoxide to thereby prepare a 10 mM stock solution.
The newly synthesized three vidarabine derivatives (FIG. 1) were dissolved in pure water to thereby prepare 10 mM stock solutions. Since vidarabine infusion of about 2 mM is used in clinical scenes as an antiherpes therapeutic (Arasena-A for intravenous infusion; Mochida Pharmaceutical Co., Ltd.), it was possible to prepare solutions at concentrations about 5 times higher than that of the infusion. In the present study, vidarabine was dissolved in 100% DMSO to prepare a 10 mM stock solution.

[4] = tested on: adenylyl cyclase activity in the striatum (type 5 adenylyl cyclase); assay: Membrane adenylyl cyclase assay, WT striatal membrane, forskolin-stimulated; type: biochemical, mouse; conditions: 10 μM; WT; striatum vs lung
Method: as §1, §2, §3, §4

[5] = tested on: cardiac myocytes in myocardial tissues; assay: TUNEL staining of myocardial tissues of chronic catecholamine-loaded mice; type: in vivo, mouse; conditions: mice of the chronic isoproterenol loading experiment
Method: FIG. 12 TUNEL stain of myocardial tissues. Apoptosis positive cardiac myocytes in the hearts of mice used in chronic catecholamine loading experiment (FIG. 9) were evaluated by TUNEL staining (n=4-6, means±SE).
<TUNEL Staining of Myocardial Tissues>
Apoptosis positive cells of the mice used in the chronic catecholamine loading experiment were evaluated by TUNEL staining.

[6] = tested on: adenylyl cyclase activity in the heart; assay: Membrane adenylyl cyclase assay, WT heart membrane, forskolin-stimulated; type: biochemical, mouse; conditions: 10 μM; wild-type mouse; heart vs lung
Source text: FIG. 3 Inhibitory effects of individual vidarabine derivatives on adenylyl cyclase activity in the striatum, heart and lung. With adenylyl cyclase activity in the presence of […] but in the absence of inhibitors being taken as 100, the reductions in adenylyl cyclase activity upon treatment with various inhibitors at the concentrations indicated on the horizontal axis are shown (n=4, means±S.E.).
as §2, §3, §4

[7] = vidarabine, background statement; cited from earlier work

Structure (SMILES)	inhibition of the isoproterenol-induced decrease of cardiac function (LVEF) [1]	activity at 100 µM [2]	level of cAMP accumulated in response to forskolin (relative to control) (H9c2 cells)	hydrophilicity [3]	inhibition of adenylyl cyclase activity in striatum relative to lung (tissue specificity) [4]	apoptosis of cardiac myocytes induced by chronic catecholamine stimulation (TUNEL, myocardial tissue) [5]	inhibition of adenylyl cyclase activity in heart relative to lung (tissue specificity) [6]	water solubility [7]
CN(C)CC(=O)OC1C(CO)OC(n2cnc3c(N)ncnc32)C1O (centres unmarked) [V3E, 3-O—(N,N-Dimethylglycyl)Vidarabine]	comparable to that of vidarabine	~25.1%	about 45.7%					
CN(C)CC(=O)OC1C(O)C(CO)OC1n1cnc2c(N)ncnc21 (centres unmarked) [V2E, 2-O—(N,N-Dimethylglycyl)Vidarabine]	comparable to that of vidarabine	~24.5%	about 57.1%	highly hydrophilic	about 3.0 fold	equally inhibited	about 2.6 fold	
CN(C)CC(=O)OCC1OC(n2cnc3c(N)ncnc32)C(O)C1O (centres unmarked) [V5E, 5-O—(N,N-Dimethylglycyl)Vidarabine]	comparable to that of vidarabine	~24.9%	about 82.5%					
Nc1ncnc2c1ncn2[C@@H]1O[C@H](CO)[C@@H](O)[C@@H]1O [vidarabine, reference compound]	significantly inhibited	~17.3%	about 35.1%		about 2.8 fold	equally inhibited	about 2.4 fold	poor
